Legend:
Etx = conditions: cited from earlier work
[1] = tested on: Ca2+ influx in Etx-treated MDCK cells; assay type: cell-based, canine
Etx-treated MDCK cells [2] = assay type: cell-based, canine
[3] = target: Etx monomer binding to MDCK cells (Clostridium perfringens, UniProt Q02307); assay type: cell-based
Etx-treated MDCK cells [4] = assay type: cell-based, canine; remark: listed apart in the source
[5] = tested on: mitochondrial membrane potential in Etx-treated MDCK cells; assay type: cell-based, canine
Etx-Etx monomers = Etx-Etx monomers (Clostridium perfringens, UniProt Q02307); assay type: binding
Etx-Etx monomers, sequence (Q02307 46-306 limits assumed): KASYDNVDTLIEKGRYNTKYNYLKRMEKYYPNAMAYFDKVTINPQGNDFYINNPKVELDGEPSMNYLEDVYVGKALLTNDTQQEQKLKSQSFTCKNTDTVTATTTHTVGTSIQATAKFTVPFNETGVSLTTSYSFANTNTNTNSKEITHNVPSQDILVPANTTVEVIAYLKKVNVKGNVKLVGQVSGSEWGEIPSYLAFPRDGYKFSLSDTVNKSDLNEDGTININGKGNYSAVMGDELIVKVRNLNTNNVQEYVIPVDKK

[6] = tested on: ROS in Etx-treated MDCK cells; assay type: cell-based, canine
C57BL/6 mice = conditions: mouse, in vivo
[7] = target: Etx pore formation in DPPC/cholesterol liposomes (Clostridium perfringens, UniProt Q02307); assay type: biochemical
Etx pore formation in DPPC/cholesterol liposomes, sequence (Q02307 46-306 limits assumed): as above

[8] = tested on: HMGB1 translocation in Etx-treated MDCK cells; assay type: cell-based, canine
[9] = tested on: Etx-challenged C57BL/6 mice; conditions: mouse, in vivo
[10] = target: Etx heptamer (oligomerization) (Clostridium perfringens, UniProt Q02307); assay type: cell-based
Etx heptamer (oligomerization), sequence (Q02307 46-306 limits assumed): as above

Etx monomer binding to MDCK cells, sequence (Q02307 46-306 limits assumed): as above

SMILES: c1ccc2c(c1)Cc1cccc3noc-2c13 [6H-anthra[1,9-cd]isoxazol]
- inhibition of Etx binding or oligomerization (Etx): none of them could inhibit

SMILES: O=C(O)CN(CCOCCOCCN(CC(=O)O)CC(=O)O)CC(=O)O [EGTA, reference compound]
- Ca2+ influx, Fluo-4 AM intensity by FACS [1]: blocked the Etx-invoked influx

SMILES: CCCOC1O[C@H](CO)[C@@H](O)[C@H](O)[C@H]1O (stereo partly drawn) [Glycoside-2]
- protection of Etx-treated MDCK cells (Etx-treated MDCK cells [2]): concentration-dependent protection
- survival of Etx-challenged MDCK cells compared to Etx (Etx-treated MDCK cells [2]): greater than 50%

SMILES: CCCCOC1O[C@H](CO)[C@@H](O)[C@H](O)[C@H]1O (stereo partly drawn) [Glycoside-4]
- effect on binding of Etx monomer to the cell membrane [3]: no effect
- PI+ cells (Etx-treated MDCK cells [4]): drastic reduction in PI^+ cells
- annexin V+/PI+ cells (phosphatidylserine exposure) (Etx-treated MDCK cells [4]): absence of annexin V^+/PI^+ cells
- mitochondrial membrane potential (ΨΔm), JC-1 [5]: could stabilize ΨΔm
- Ca2+ entry, Fluo-4 AM fluorescence microscopy [1]: complete reduction in Ca^2+ entry
- Ca2+ influx, Fluo-4 AM intensity by FACS [1]: drastic reduction of Fluo-4 AM intensity
- Etx (protein-protein) interaction in SPR (Etx-Etx monomers): no Etx (protein-protein) interaction could be seen
- ROS levels, DCFDA [6]: decreased levels of ROS
- mortality or clinical signs (seizures, convulsions and depression) (C57BL/6 mice): No mortality or clinical signs
- effect on pore formation in Etx-treated liposomes [7]: tearings disappeared
- HMGB1 localization [8]: largely remained in the nucleus
- mice protected [9]: 60%
- mice with improved liver (H&E) [9]: 60%
- mice with protected brain structures (H&E) [9]: 60%
- death rate ([9]; ip, 50 mg/kg): 40%
- cell survival upon Etx challenge (MTT), pre- and post-treatment (Etx-treated MDCK cells [2]): increase in cell survival
- protection of Etx-treated MDCK cells (Etx-treated MDCK cells [2]): highest survival efficiency
- survival of Etx-challenged MDCK cells compared to Etx (Etx-treated MDCK cells [2]): greater than 50%
- effect on Etx heptamer (oligomer) intensity [10]: substantial decrease in heptamer intensity

SMILES: CCCCCCOC1O[C@H](CO)[C@@H](O)[C@H](O)[C@H]1O (stereo partly drawn) [Glycoside-6]
- protection of Etx-treated MDCK cells (Etx-treated MDCK cells [2]): concentration-dependent protection
- survival of Etx-challenged MDCK cells compared to Etx (Etx-treated MDCK cells [2]): greater than 50%

SMILES: c1ccc2nc3occc3cc2c1 [furo[2,3-b]quinoline]
- inhibition of Etx binding or oligomerization (Etx): none of them could inhibit

SMILES: C[C@H](CCC(=O)O)C[C@H](C)C[C@H](C)C(=O)/C=C(\O)[C@H](C)C[C@H](C)C/C=C/[C@@H](C)[C@@H](O)[C@@H](C)[C@@H](O)C[C@@H]1CC[C@@](C)([C@H]2CC[C@@](C)([C@@H](C)O)O2)O1 [ionomycin, reference compound]
- Ca2+ influx, Fluo-4 AM intensity by FACS [1]: Clear intensity shift

Source: article PMC6826021 (Disease Models & Mechanisms, 2019)
